Experiment [1] has as its system P. aeruginosa. The following applies: P. aeruginosa ATCC 27853; quality control range printed beside broth microdilution MIC of parent strain; cited from earlier work. In general terms: Dilution methods test growth across graded concentrations, often in twofold steps.
A further experiment relates to L. monocytogenes. The experiment is described as follows: microbe, parasite or virus in culture. The following applies: L. monocytogenes ATCC 19112; MHB; mode of 6 replicates. A digest of the protocol: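 MICs were scored by eye after 18-20 h static incubation at 37 °C, with bacteria at 5 × 10^5 CFU mL^−1 in MHB. Peptides were serially diluted 2-fold over 12 points, top 128 or 64 μg mL^−1. CAMHB (CLSI) and 1% agarose-MHB variants were also run, at least six replicates.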

The next experiment has as its system A. baumannii ATCC 19636. The experiment is described as follows: microbe, parasite or virus in culture. The format is cell-based, Acinetobacter baumannii.
In the next experiment the test system is K. pneumoniae. The experiment in a line: microbe, parasite or virus in culture. The class given is cell-based, Klebsiella pneumoniae.
Experiment [2] deals with P. aeruginosa. The experiment in a line: microbe, parasite or virus in culture. The class given is cell-based, Pseudomonas aeruginosa. On the set-up: MIC, Survanta (5%) replicates: unit not given beside the values.
The subject of experiment [3] is K. pneumoniae (#3010 & ST258). The experiment is described as follows: microbe, parasite or virus in culture. The format is cell-based, Klebsiella pneumoniae. The method, then:
(§1) The test media was cation-adjusted MHB (CAMHB, Becton Dickinson) supplemented with 2% Noble Agar (Becton Dickinson) and additionally for AA139 with 0.1% BSA. The agar dilution MIC values were determined as recommended by Clinical and Laboratory Standards Institute (CLSI)[47]. […] The inoculum for the spontaneous mutation plates targeted 10^9 to 10^10 colony-forming units (CFU) per plate. The viable count of each suspension was determined by plating serial ten-fold dilutions onto MHB/NA in duplicate. In addition, agar plates without drug were inoculated as positive controls. Plates were inspected for growth at both 24 and 48 h. Colony counts were determined manually. Using the counts at 48 h, the spontaneous mutation frequency was calculated using the following equation: (average number of colonies from duplicate selection plates)/(total number of cells inoculated onto each plate). If there were no colonies on the antibiotic selection plates, the spontaneous mutation frequency was reported as less than the frequency observed with one colony to indicate that the spontaneous mutation frequency was less than the limit of detection (one CFU).

The test system of experiment [4] is E. coli (AID#172 & ATCC 25922). The experiment is described as follows: microbe, parasite or virus in culture. The class given is cell-based, Escherichia coli. The method, then: as §1
A further experiment deals with E. coli. Further details: method as in Hasman H, et al. Euro. Surveill. (2015) 20:49. The following applies: E. coli ESBL20150072, mcr-1 pos; ESBL; CAMHB; comparator antibiotics; ref Hasman H, et al. Euro. Surveill. (2015) 20:49; cited from earlier work.
[5] abbreviates: A. baumannii ATCC 19636 type strain, n=2 to 6, mode or median.
[6] abbreviates: K. pneumoniae ATCC 700603 ESBL, OXA-2/SHV-18, n=2 to 6, mode or median.
[7] abbreviates: P. aeruginosa ATCC 27853 control strain, n=2 to 6, mode or median.
The mark [8] stands for this setting: P. aeruginosa FADDI-070 MDR, PmxR, n=2 to 6, mode or median.

In the case of `C[C@H]1[C@H](NC(=O)/C(=N\OC(C)(C)C(=O)O)c2csc(N)n2)C(=O)N1S(=O)(=O)O` [AZT], the “MIC Quality control range” value in the experiment with P. aeruginosa [1] is 2 to 8 µg/mL.

For the molecule colistin, the “BMD MIC” value was 16 µg/mL in the experiment on L. monocytogenes and more than 4 µg/mL with E. coli. The “MIC, Survanta (5%)” value against A. baumannii ATCC 19636 (A. baumannii ATCC 19636, type strain, BMD with 5% Survanta lung surfactant, mode, or median where no mode, n=4 to 6, where n=2 differs the higher value) is 0.125; in the experiment on A. baumannii ATCC 19636 (setting [5]), 0.125 µg/mL; with K. pneumoniae (K. pneumoniae ATCC 700603, ESBL, OXA-2/SHV-18, BMD with 5% Survanta lung surfactant, mode, or median where no mode, n=4 to 6, where n=2 differs the higher value), 0.125; against K. pneumoniae (setting [6]), 0.125 µg/mL; in the experiment with K. pneumoniae (K. pneumoniae BAA-2146, NDM-1, BMD with 5% Survanta lung surfactant, mode, or median where no mode, n=4 to 6, where n=2 differs the higher value), 0.06; in the experiment on K. pneumoniae (K. pneumoniae BAA-2146 NDM-1, n=2 to 6, mode or median) it was 0.06 µg/mL. In addition, the “MIC, Survanta (5%)” value with P. aeruginosa [2] (P. aeruginosa ATCC 27853, control strain, BMD with 5% Survanta lung surfactant, mode, or median where no mode, n=4 to 6, where n=2 differs the higher value) was 0.25; against P. aeruginosa [2] (setting [7]), 0.25 µg/mL; against P. aeruginosa [2] (P. aeruginosa FADDI-070, MDR, PmxR, BMD with 5% Survanta lung surfactant, mode, or median where no mode, n=4 to 6, where n=2 differs the higher value) it was not below 64; against P. aeruginosa [2] (setting [8]) it was not below 64 µg/mL. Besides, the “MIC, Survanta (5%) replicates” value is given as 0.5 in the experiment with A. baumannii ATCC 19636 (A. baumannii ATCC 19636, type strain, BMD with 5% Survanta lung surfactant, replicate 1); 0.25 in the experiment on A. baumannii ATCC 19636 (A. baumannii ATCC 19636, type strain, BMD with 5% Survanta lung surfactant, replicate 2); 0.06 with A. baumannii ATCC 19636 (A. baumannii ATCC 19636, type strain, BMD with 5% Survanta lung surfactant, replicate 3); 0.06 against A. baumannii ATCC 19636 (A. baumannii ATCC 19636, type strain, BMD with 5% Survanta lung surfactant, replicate 4); 1 in the experiment on K. pneumoniae (K. pneumoniae ATCC 700603, ESBL, OXA-2/SHV-18, BMD with 5% Survanta lung surfactant, replicate 1); 0.5 in the experiment on K. pneumoniae (K. pneumoniae ATCC 700603, ESBL, OXA-2/SHV-18, BMD with 5% Survanta lung surfactant, replicate 2). Also, the “MIC, Survanta (5%) replicates” value against K. pneumoniae (K. pneumoniae ATCC 700603, ESBL, OXA-2/SHV-18, BMD with 5% Survanta lung surfactant, replicate 3) is 0.03; in the experiment on K. pneumoniae (K. pneumoniae ATCC 700603, ESBL, OXA-2/SHV-18, BMD with 5% Survanta lung surfactant, replicate 4), 0.06; against K. pneumoniae (K. pneumoniae BAA-2146, NDM-1, BMD with 5% Survanta lung surfactant, replicate 1), 0.125; against K. pneumoniae (K. pneumoniae BAA-2146, NDM-1, BMD with 5% Survanta lung surfactant, replicate 2) it was 0.125; in the experiment with K. pneumoniae (K. pneumoniae BAA-2146, NDM-1, BMD with 5% Survanta lung surfactant, replicate 3), not above 0.03; in the experiment with K. pneumoniae (K. pneumoniae BAA-2146, NDM-1, BMD with 5% Survanta lung surfactant, replicate 4), not above 0.03. Also, the “MIC, Survanta (5%) replicates” value with P. aeruginosa [2] (P. aeruginosa ATCC 27853, control strain, BMD with 5% Survanta lung surfactant, replicate 1) was 0.5; against P. aeruginosa [2] (P. aeruginosa ATCC 27853, control strain, BMD with 5% Survanta lung surfactant, replicate 2), 0.5; in the experiment with P. aeruginosa [2] (P. aeruginosa ATCC 27853, control strain, BMD with 5% Survanta lung surfactant, replicate 3) it was 0.125; in the experiment with P. aeruginosa [2] (P. aeruginosa ATCC 27853, control strain, BMD with 5% Survanta lung surfactant, replicate 4) it was 0.125; in the experiment with P. aeruginosa [2] (P. aeruginosa FADDI-070, MDR, PmxR, BMD with 5% Survanta lung surfactant, replicate 1), 64; with P. aeruginosa [2] (P. aeruginosa FADDI-070, MDR, PmxR, BMD with 5% Survanta lung surfactant, replicate 2) it was 64. Besides, the “MIC, Survanta (5%) replicates” value against P. aeruginosa [2] (P. aeruginosa FADDI-070, MDR, PmxR, BMD with 5% Survanta lung surfactant, replicate 3) is more than 64; against P. aeruginosa [2] (P. aeruginosa FADDI-070, MDR, PmxR, BMD with 5% Survanta lung surfactant, replicate 4) it was more than 64. The “MIC, Serum (50%)” value in the experiment on A. baumannii ATCC 19636 (A. baumannii ATCC 19636, type strain, BMD with 50% human serum, mode, or median where no mode, n=4 to 6, where n=2 differs the higher value) was not above 0.031; in the experiment with A. baumannii ATCC 19636 (setting [5]), not above 0.031 µg/mL; against K. pneumoniae (K. pneumoniae ATCC 13883, type strain, BMD with 50% human serum, where n=2 differs the higher value is recorded), not above 0.03; against K. pneumoniae (K. pneumoniae ATCC 13883 type strain, n=2 to 6, mode or median), not above 0.03 µg/mL; against K. pneumoniae (K. pneumoniae ATCC 700603, ESBL, OXA-2/SHV-18, BMD with 50% human serum, mode, or median where no mode, n=4 to 6, where n=2 differs the higher value), 0.125; in the experiment with K. pneumoniae (setting [6]), 0.125 µg/mL. Besides, the “MIC, Serum (50%)” value in the experiment on P. aeruginosa [2] (P. aeruginosa ATCC 27853, control strain, BMD with 50% human serum, mode, or median where no mode, n=4 to 6, where n=2 differs the higher value) was determined as 0.25; against P. aeruginosa [2] (setting [7]) it was 0.25 µg/mL; with P. aeruginosa [2] (P. aeruginosa FADDI-070, MDR, PmxR, BMD with 50% human serum, where n=2 differs the higher value is recorded), 0.25; against P. aeruginosa [2] (setting [8]), 0.25 µg/mL. In addition, the “MIC, Serum (50%) replicates” value was not above 0.031 with A. baumannii ATCC 19636 (A. baumannii ATCC 19636, type strain, BMD with 50% human serum, replicate 1); not above 0.031 in the experiment on A. baumannii ATCC 19636 (A. baumannii ATCC 19636, type strain, BMD with 50% human serum, replicate 2); not above 0.031 against A. baumannii ATCC 19636 (A. baumannii ATCC 19636, type strain, BMD with 50% human serum, replicate 3); not above 0.031 against A. baumannii ATCC 19636 (A. baumannii ATCC 19636, type strain, BMD with 50% human serum, replicate 4); not above 0.03 against K. pneumoniae (K. pneumoniae ATCC 13883, type strain, BMD with 50% human serum, replicate 1); not above 0.03 in the experiment with K. pneumoniae (K. pneumoniae ATCC 13883, type strain, BMD with 50% human serum, replicate 2). Also, the “MIC, Serum (50%) replicates” value is reported as 0.25 against K. pneumoniae (K. pneumoniae ATCC 700603, ESBL, OXA-2/SHV-18, BMD with 50% human serum, replicate 1); 0.25 in the experiment on K. pneumoniae (K. pneumoniae ATCC 700603, ESBL, OXA-2/SHV-18, BMD with 50% human serum, replicate 2); 0.031 in the experiment on K. pneumoniae (K. pneumoniae ATCC 700603, ESBL, OXA-2/SHV-18, BMD with 50% human serum, replicate 3); 0.063 against K. pneumoniae (K. pneumoniae ATCC 700603, ESBL, OXA-2/SHV-18, BMD with 50% human serum, replicate 4); 0.031 against K. pneumoniae (K. pneumoniae ATCC 700603, ESBL, OXA-2/SHV-18, BMD with 50% human serum, replicate 5); not above 0.031 in the experiment on K. pneumoniae (K. pneumoniae ATCC 700603, ESBL, OXA-2/SHV-18, BMD with 50% human serum, replicate 6). In addition, the “MIC, Serum (50%) replicates” value is 0.5 against P. aeruginosa [2] (P. aeruginosa ATCC 27853, control strain, BMD with 50% human serum, replicate 1); 0.5 in the experiment with P. aeruginosa [2] (P. aeruginosa ATCC 27853, control strain, BMD with 50% human serum, replicate 2); 0.25 with P. aeruginosa [2] (P. aeruginosa ATCC 27853, control strain, BMD with 50% human serum, replicate 3); 0.25 in the experiment with P. aeruginosa [2] (P. aeruginosa ATCC 27853, control strain, BMD with 50% human serum, replicate 4); 0.125 in the experiment with P. aeruginosa [2] (P. aeruginosa ATCC 27853, control strain, BMD with 50% human serum, replicate 5); 0.125 with P. aeruginosa [2] (P. aeruginosa ATCC 27853, control strain, BMD with 50% human serum, replicate 6). Further, the “MIC, Serum (50%) replicates” value in the experiment with P. aeruginosa [2] (P. aeruginosa FADDI-070, MDR, PmxR, BMD with 50% human serum, replicate 1) was 0.25; in the experiment with P. aeruginosa [2] (P. aeruginosa FADDI-070, MDR, PmxR, BMD with 50% human serum, replicate 2) it was 0.125. The “Noble agar dilution MIC” value in experiment [3] (K. pneumoniae SSI#3010), in experiment [3] (K. pneumoniae ST258), in experiment [4] (E. coli AID#172) and in experiment [4] (E. coli ATCC 25922) was 1 µg/mL in each case. Also, the “Agar (Noble) Dilution MIC” value in experiment [3] (K. pneumoniae ST258) and in experiment [4] (E. coli ATCC 25922) was 1 µg/mL throughout. Moreover, the “Spontaneous frequency of resistance at 4× MIC” value in experiment [4] (E. coli AID#172, counts at 48 h, >TC = colonies too numerous to count) was “>TC”.

For the molecule `NC[C@H]1O[C@H](O[C@H]2[C@H](O)[C@@H](O[C@H]3O[C@H](CO)[C@@H](O)[C@H](N)[C@H]3O)[C@H](N)C[C@@H]2N)[C@H](N)C[C@@H]1O` [TOB], in the experiment on P. aeruginosa [1], the “MIC Quality control range” value is 0.25 to 1 µg/mL.

The values above are taken from PMC7311426, “An amphipathic peptide with antibiotic activity against multidrug-resistant Gram-negative bacteria” (Nature Communications, 2020).
